We go through six compounds from ChEMBL document CHEMBL1133722 (J Med Chem, 2000).

Holding throughout (type): cell-based, Cercopithecidae
Experiment [1] has as its target Kappa-type opioid receptor (Homo sapiens, UniProt P41145, E297K). The experiment is described as follows: Binding affinity using [3H]diprenorphine as the radioligand against E297K mutant Opioid receptor kappa 1 in COS-7 cells.
In experiment [2] the target is T1, Mu-type opioid receptor (Homo sapiens, UniProt P35372). The experiment is described as follows: Binding affinity using [3H]diprenorphine as the radioligand against K303E Opioid receptor mu 1 in COS-7 cells.
T1 sequence (P35372 whole entry): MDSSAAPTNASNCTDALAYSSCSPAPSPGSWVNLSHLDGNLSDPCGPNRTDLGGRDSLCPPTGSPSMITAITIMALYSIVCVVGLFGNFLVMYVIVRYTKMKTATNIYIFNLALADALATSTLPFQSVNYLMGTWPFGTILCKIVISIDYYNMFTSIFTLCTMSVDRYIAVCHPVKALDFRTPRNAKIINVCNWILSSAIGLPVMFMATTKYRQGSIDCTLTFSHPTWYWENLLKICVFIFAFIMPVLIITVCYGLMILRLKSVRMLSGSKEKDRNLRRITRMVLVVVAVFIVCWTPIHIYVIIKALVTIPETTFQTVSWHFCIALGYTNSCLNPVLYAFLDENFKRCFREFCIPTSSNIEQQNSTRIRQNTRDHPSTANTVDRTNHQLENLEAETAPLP
Experiment [3] has as its target Kappa-type opioid receptor (Homo sapiens, UniProt P41145, E297A). Nature of the experiment: Binding affinity using [3H]diprenorphine as the radioligand against E297A mutant Opioid receptor kappa 1 in COS-7 cells.
Experiment [4] has as its target T2, Kappa-type opioid receptor (Homo sapiens, UniProt P41145). Nature of the experiment: Binding affinity using [3H]diprenorphine as the radioligand against wild-type Opioid receptor kappa 1 in COS-7 cells.
The target in experiment [5] is T1, Mu-type opioid receptor. Nature of the experiment: Binding affinity using [3H]diprenorphine as the radioligand against wild-type Opioid receptor mu 1 in COS-7 cells.
Experiment [6] concerns the target T2, Kappa-type opioid receptor. The experiment is described as follows: Binding affinity using [3H]diprenorphine as the radioligand against wild-type Opioid receptor kappa 1r in COS-7 cells.

Each structure is given as a SMILES string. Where only a bound is given, the exact number is not on record here.

T2 sequence (P41145 whole entry): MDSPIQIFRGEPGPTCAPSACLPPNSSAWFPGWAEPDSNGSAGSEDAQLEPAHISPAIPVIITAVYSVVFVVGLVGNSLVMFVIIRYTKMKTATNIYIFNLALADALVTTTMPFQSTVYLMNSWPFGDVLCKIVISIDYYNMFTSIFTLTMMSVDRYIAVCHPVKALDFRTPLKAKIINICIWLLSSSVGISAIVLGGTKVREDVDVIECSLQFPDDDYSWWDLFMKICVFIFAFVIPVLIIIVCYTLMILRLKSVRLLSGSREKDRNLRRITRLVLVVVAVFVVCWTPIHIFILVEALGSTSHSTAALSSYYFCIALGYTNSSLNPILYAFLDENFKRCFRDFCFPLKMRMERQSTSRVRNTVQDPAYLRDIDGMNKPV
Sequence of Kappa-type opioid receptor (Homo sapiens, UniProt P41145, E297K) (P41145 whole entry E297K): as the sequence (P41145 whole entry) above, with E297K counted along it
Sequence of Kappa-type opioid receptor (Homo sapiens, UniProt P41145, E297A) (P41145 whole entry E297A): as the sequence (P41145 whole entry) above, with E297A counted along it

The term Ki denotes the dissociation constant of the complex between target and ligand, obtained from inhibition or displacement. Read a high Ki as weaker binding. Turning to `CC(=O)N1CC[C@]23c4c5ccc(O)c4O[C@H]2c2[nH]c4c(c2C[C@@]3(O)[C@H]1C5)C[C@@]1(O)[C@H]2Cc3ccc(O)c5c3[C@@]1(CCN2CC1CC1)[C@H]4O5`, the Ki stood at 104 nM in experiment [1]; 42 nM in experiment [2]; 104 nM in experiment [3]; 23.6 nM in experiment [4]; 102 nM in experiment [5].

With `CN1CC[C@]23c4c5ccc(O)c4O[C@H]2c2[nH]c4c(c2C[C@@]3(O)[C@H]1C5)C[C@@]1(O)[C@H]2Cc3ccc(O)c5c3[C@@]1(CCN2C)[C@H]4O5`, the Ki in experiment [1] was more than 1000 nM; in experiment [2], 41.7 nM; in experiment [3] it was more than 1000 nM; in experiment [4], 21.7 nM; in experiment [5] it was more than 1000 nM.

Regarding `CN1CC[C@]23c4c5ccc(O)c4O[C@H]2c2[nH]c4c(c2C[C@H]3[C@H]1C5)C[C@@]1(O)[C@H]2Cc3ccc(O)c5c3[C@@]1(CCN2CC1CC1)[C@H]4O5`, the Ki in experiment [1] amounted to 39.9 nM; in experiment [2], 0.16 nM; in experiment [3], 39.6 nM; in experiment [4], 0.32 nM; in experiment [5] it was 40 nM.

For `COc1ccc2c3c1O[C@H]1c4[nH]c5c(c4C[C@@]4(O)[C@@H](C2)N(CC2CC2)CC[C@]314)C[C@@]1(O)[C@H]2Cc3ccc(O)c4c3[C@@]1(CCN2CC1CC1)[C@H]5O4`, the Ki in experiment [1] was 28 nM; in experiment [2], 2.7 nM; in experiment [3], 17 nM; in experiment [4], 0.39 nM; in experiment [5], 276 nM.

With `COc1ccc2c3c1O[C@H]1c4[nH]c5c(c4C[C@@]4(O)[C@@H](C2)N(CC2CC2)CC[C@]314)C[C@@]1(O)[C@H]2Cc3ccc(O)c4c3[C@@]1(CCN2C)[C@H]5O4`, the Ki in experiment [1] was more than 1000 nM; in experiment [2], 52 nM; in experiment [3], more than 1000 nM; in experiment [4], 36.3 nM; in experiment [5], 165 nM.

As to `N=C(N)N1CC[C@]23c4c5ccc(O)c4O[C@H]2c2[nH]c4c(c2C[C@@]3(O)[C@H]1C5)C[C@@]1(O)[C@H]2Cc3ccc(O)c5c3[C@@]1(CCN2CC1CC1)[C@H]4O5`, the Ki in experiment [6] worked out at 0.57 nM; in experiment [1] it was 189 nM.
